Assay results from US20260053811A1, “METHODS OF TREATING HYPERTENSION IN OBESE SUBJECTS” (Mineralys Therapeutics, Inc., priority 2022, published 2026).

Tested on: hypertensive subjects
Assay: Seated automated office blood pressure (AOBP) in randomized, placebo-controlled, dose-ranging study
Assay type: in vivo, human
Set-up: Difference from placebo in change in blood pressure: unit not given here
Experimental: A randomized, double-blinded, placebo-controlled, dose-ranging, multicenter study was conducted to evaluate the effect of orally administered Compound A HBr on blood pressure for the treatment of hypertension in male and female subjects ≥18 years of age.
The study consists of two parts. For enrollment into Part 1 of the study, a subject's value of plasma renin activity (PRA) must be ≤1 ng/mL/h based on morning measurement. If the value of PRA >1 ng/mL/h based on morning measurement, then subjects may be eligible to enter Part 2 of the study.
For Part 1, 163 enrolled subjects ≥18 years of age were randomized into 6 equal treatment groups (1:1:1:1:1:1) to 12.5 mg BID, 25 mg BID, 12.5 mg QD, 50 mg QD, 100 mg QD, or placebo. After a review of interim clinical data, the 2 lowest dose levels (12.5 mg QD and 12.5 mg BID) were stopped for future randomization due to a lack of consistent meaningful reduction of blood pressure, but the patients randomized to that point remained in the study through completion. Thus, after the review of interim clinical data, subjects were randomized into 4 equal treatment groups (1:1:1:1) to 25 mg BID, 50 mg QD, 100 mg QD, or placebo.
For Part 2, 36 enrolled subjects ≥18 years of age were randomized (5:1) to either 100 mg QD Compound A HBr or placebo such that the Compound A HBr treatment group consisted of approximately 30 subjects and the placebo treatment group will consist of approximately 6 subjects.
Subjects orally administered the assigned study drug (Compound A HBr or placebo) according to the assigned dosing regimen for 8 weeks beginning on Study Day 1. All subjects in Part 1 (regardless of dosing group) received BID dosing to preserve the integrity of the blind; active drug is administered as the morning dose for all QD dose groups. Subjects returned to the research facility or were seen by the clinical investigator or approved home health care professional at the end of Study Weeks 1, 2, 3, 4, 5, 6, 7, and 8 (±2 days) for protocol-defined efficacy and safety assessments and procedures, assessment of adverse events (AEs), and confirmation of compliance with study drug usage. Subjects also completed a telephone visit and blood pressure (BP) check at home approximately 3 days post last dose of study drug. Subjects attended up to 14 full clinic visits, including a pre-Screening visit, a Screening/start of Placebo Run-in visit, a second visit during Placebo Run-in, a clinic visit to initiate the ABPM procedure, a Randomization visit, 8 weekly visits during double-blind treatment, and an end-of-study visit scheduled 4 weeks after the last study treatment for final efficacy and safety assessments.
An automated oscillometric sphygmomanometer device was used to measure the subjects' systolic and diastolic blood pressure in office after approximately 5 minutes of rest in the seated position.
The primary endpoint is the change in office-measured (mean of last 2 of 5 unattended measurements using an automated oscillometric sphygmomanometer device after approximately 5 minutes of rest in the seated position) systolic blood pressure (SBP) from baseline to the end of Study Week 8.
Secondary endpoints of this study were: • (a) Change in 24-hour ambulatory blood pressure monitoring (ABPM) parameters (systolic and diastolic) from baseline to the end of Study Week 7. • (b) Change in office-measured SBP from baseline to the end of Study Weeks 1, 2, 3, 4, 5, 6, and 7. • (c) Change in office-measured diastolic blood pressure (DBP) from baseline to the end of Study Weeks 1, 2, 3, 4, 5, 6, 7, and 8. • (d) Proportion of subjects who achieve office-measured BP of ≤130/80 mm Hg by the end of Study Week 8.

[1] = 12.5 mg BID, Week 1, Part 1, FAS
[2] = 12.5 mg BID, Week 2, Part 1, FAS
[3] = 12.5 mg BID, Week 3, Part 1, FAS
[4] = 12.5 mg BID, Week 4, Part 1, FAS
[5] = 12.5 mg BID, Week 5, Part 1, FAS
[6] = 12.5 mg BID, Week 6, Part 1, FAS
[7] = 12.5 mg BID, Week 7, Part 1, FAS
[8] = 12.5 mg BID, Week 8, Part 1, FAS

CC(=O)N[C@H]1CC[C@H](NC(=O)CN2CCN(c3nncc(-c4ccc(C)cc4)n3)CC2)CC1 [Compound A HBr]
Difference from placebo in change in blood pressure (12.5 mg BID, BMI 25-30): −3.5
Difference from placebo in change in blood pressure (12.5 mg BID, BMI >30): −10.1
Difference from placebo in change in blood pressure (12.5 mg BID, Thiazide No): −1.4
Difference from placebo in change in blood pressure (12.5 mg BID, Thiazide Yes): −10.6
Seated AOBP DBP change from baseline (CFB), Mean (SD) [1]: −5.95 (6.17) mmHg
Seated AOBP DBP, Mean (SD) [1]: 75.59 (8.32) mmHg
Seated AOBP SBP change from baseline (CFB), Mean (SD) [1]: −8.89 (11.51) mmHg
Seated AOBP SBP, Mean (SD) [1]: 135.68 (14.48) mmHg
Seated AOBP DBP change from baseline (CFB), Mean (SD) [2]: −7.32 (9.14) mmHg
Seated AOBP DBP, Mean (SD) [2]: 74.23 (10.15) mmHg
Seated AOBP SBP change from baseline (CFB), Mean (SD) [2]: −11.98 (13.02) mmHg
Seated AOBP SBP, Mean (SD) [2]: 132.59 (14.70) mmHg
Seated AOBP DBP change from baseline (CFB), Mean (SD) [3]: −0.93 (7.51) mmHg
Seated AOBP DBP, Mean (SD) [3]: 79.95 (9.17) mmHg
Seated AOBP SBP change from baseline (CFB), Mean (SD) [3]: −5.80 (9.60) mmHg
Seated AOBP SBP, Mean (SD) [3]: 137.70 (15.37) mmHg
LSM Δ with Placebo, seated AOBP DBP (MMRM) [4]: −4.48 mmHg
Modelled (MMRM) LSM (SEM) change from baseline, seated AOBP DBP [4]: −5.02 (1.67) mmHg
Seated AOBP DBP change from baseline (CFB), Mean (SD) [4]: −4.18 (10.21) mmHg
Seated AOBP DBP, Mean (SD) [4]: 75.79 (10.69) mmHg
Seated AOBP SBP change from baseline (CFB), Mean (SD) [4]: −10.71 (12.27) mmHg
Seated AOBP SBP, Mean (SD) [4]: 132.95 (15.79) mmHg
Seated AOBP DBP change from baseline (CFB), Mean (SD) [5]: −7.00 (7.81) mmHg
Seated AOBP DBP, Mean (SD) [5]: 73.50 (10.13) mmHg
Seated AOBP SBP change from baseline (CFB), Mean (SD) [5]: −12.53 (13.34) mmHg
Seated AOBP SBP, Mean (SD) [5]: 131.44 (13.13) mmHg
Seated AOBP DBP change from baseline (CFB), Mean (SD) [6]: −6.47 (6.39) mmHg
Seated AOBP DBP, Mean (SD) [6]: 74.95 (10.29) mmHg
Seated AOBP SBP change from baseline (CFB), Mean (SD) [6]: −14.00 (14.80) mmHg
Seated AOBP SBP, Mean (SD) [6]: 129.79 (15.24) mmHg
Seated AOBP DBP change from baseline (CFB), Mean (SD) [7]: −5.76 (7.62) mmHg
Seated AOBP DBP, Mean (SD) [7]: 74.21 (9.64) mmHg
Seated AOBP SBP change from baseline (CFB), Mean (SD) [7]: −11.76 (13.06) mmHg
Seated AOBP SBP, Mean (SD) [7]: 131.89 (11.93) mmHg
LSM Δ from Placebo, change from baseline in seated AOBP SBP (MMRM) [8]: −7.2 mmHg
LSM Δ with Placebo, seated AOBP DBP (MMRM) [8]: −3.84 mmHg
Modelled (MMRM) LSM (SEM) change from baseline, seated AOBP DBP [8]: −5.47 (2.02) mmHg
Modelled (MMRM) LSM (SEM) change from baseline, seated AOBP SBP [8]: −11.30 (3.15) mmHg
Seated AOBP DBP change from baseline (CFB), Mean (SD) [8]: −5.84 (8.78) mmHg
Seated AOBP DBP, Mean (SD) [8]: 75.21 (10.07) mmHg
Seated AOBP SBP change from baseline (CFB), Mean (SD) [8]: −13.79 (17.70) mmHg
Seated AOBP SBP, Mean (SD) [8]: 131.89 (12.93) mmHg
Subjects with seated AOBP SBP/DBP ≤130/80 mmHg: No [8]: 15 (68.2) n (%)
Subjects with seated AOBP SBP/DBP ≤130/80 mmHg: Yes [8]: 7 (31.8) n (%)
Difference from placebo in change in blood pressure (12.5 mg QD, BMI 25-30): −.14
